Results reported in PMC5146859, “Phase 1/2 study of pacritinib, a next generation JAK2/FLT3 inhibitor, in myelofibrosis or other myeloid malignancies” (Journal of Hematology & Oncology, 2016).
Like-named read-outs stand apart in the source and are kept apart here.

Key:
Format in all cases: in vivo, human
patients with MF [1] = experiment: Phase 2 MF Quality of Life and Symptoms Assessment Tool; settings: phase 2, 400 mg QD
Protocol: (§1) In phase 2, abdominal MRI to assess spleen and liver volume was performed on day 1 of cycles 1, 4, and 7 and then day 1 of every third cycle through cycle 25. Spleen size (length) was also assessed by manual palpation with each scheduled physical examination. The phase 2 study protocol was amended in September 2009 to include the MF Quality of Life and Symptoms Assessment Tool. […] The instrument was administered pre-dose on day 1 of cycles 1, 2, 4, 7, and 10 and then on day 1 of every third cycle through cycle 25.
(§2) The primary endpoint of the phase 2 component was the proportion of the efficacy population who achieved a ≥35% reduction in spleen volume from baseline at week 24, as measured by MRI. Spleen response rate was also assessed in terms of a ≥35% reduction in spleen volume by MRI up to week 24 and end of treatment and as a ≥50% reduction in spleen length by physical examination up to week 24 and end of treatment. Duration of response was not analyzed due to limitations in the proportion of responders. An exploratory endpoint was the proportion of patients with a ≥50% reduction in MF Quality of Life and Symptoms Assessment Tool at week 24 compared with baseline.

patients with MF [2] = experiment: Phase 2 spleen response (volume by MRI, length by physical examination); settings: phase 2, 400 mg QD
Protocol: as §1, §2
The planned sample size of 29 patients for the phase 2 component provided 80% power to detect a spleen response rate of ≥30% versus the null hypothesis of a response rate of ≤10%, with α = 0.05 (two-sided). The efficacy-evaluable population included those patients with a baseline and corresponding follow-up value. The safety population included all enrolled patients who received ≥1 dose of pacritinib.

[3] = Phase 1 pharmacokinetics (liquid chromatography/tandem mass spectrometry); settings: for AUC(0-t) / Cmax / Tmax: human, in vivo, oral; for Tmax: read-out: Tmax, Median
Protocol: In phase 1, full PK sampling was performed on days 1 and 15 of cycle 1 and day 1 of cycle 2. Trough PK samples were drawn prior to dosing on days 8 and 22 of cycle 1 and at 24, 48, and 72 h after dosing on day 25 of cycle 1. A sample was collected before dosing on day 1 of cycles 4, 7, and 10. Pacritinib concentrations were determined using a validated liquid chromatography/tandem mass spectrometry method. An analysis of clinical exposures from the HCl and citrate salts of pacritinib was performed comparing Day 1 PK data from 12 patients who received the HCl salt formulation in the 200 mg cohorts of this study and two other pacritinib studies [NCT00741871 and NCT00745550]) with six patients in the 200 mg cohort of this study who received the citrate salt formulation.

C1=C/COCc2cc(ccc2OCCN2CCCC2)Nc2nccc(n2)-c2cccc(c2)COC/1 [pacritinib, 11-(2-pyrrolidin-1-yl-ethoxy)-14,19-dioxa-5,7,26-triaza-tetracyclo[19.3.1.1(2,6). 1(8,12)]heptacosa-1(25),2(26),3,5,8,10,12(27),16,21,23-decaene]
Individual symptoms and overall quality of life score (patients with MF [1]): Improvement was seen in each of the individual symptoms
Bone pain, Mean percent change from baseline at Week 24 (SD) (patients with MF [1]; N = 11): -51.6 (43.04) %
Night sweats, Mean percent change from baseline at Week 24 (SD) (patients with MF [1]; N = 11): -31.3 (85.45) %
Itching (pruritus), Mean percent change from baseline at Week 24 (SD) (patients with MF [1]; N = 12): -62.6 (45.35) %
Abdominal pain, Mean percent change from baseline at Week 24 (SD) (patients with MF [1]; N = 16): -54.2 (58.14) %
Overall quality of life, Mean percent change from baseline at Week 24 (SD) (patients with MF [1]; N = 16): -38.1 (49.50) %
Early satiety, Mean percent change from baseline at Week 24 (SD) (patients with MF [1]; N = 17): -42.2 (37.53) %
Fatigue – worst, Mean percent change from baseline at Week 24 (SD) (patients with MF [1]; N = 18): -12.5 (63.55) %
Total symptom score, Mean percent change from baseline at Week 24 (SD) (patients with MF [1]; N = 18): -27.5 (39.01) %
Evaluable patients with ≥50% reduction in MF Quality of Life and Symptom Assessment total score (patients with MF [1]; week 24 (7/18)): 38.9%
Evaluable patients achieving ≥35% spleen volume reduction by MRI (primary endpoint) (patients with MF [2]; at week 24 (4/17)): 23.5%
Patients achieving ≥50% spleen length reduction by physical examination (patients with MF [2]; at week 24 (9/19)): 47.4%
Patients achieving ≥35% spleen volume reduction by MRI (patients with MF [2]; up to end of treatment (7/23)): 30.4%
Patients achieving ≥50% spleen length reduction by physical examination (patients with MF [2]; up to end of treatment (12/31)): 38.7%
Mean PK profiles, citrate vs HCl salts ([3]; 200 mg, day 1, 6 patients citrate vs 12 patients HCl): similar
AUC(0-t) ([3]; 100 mg, phase 1, Day 1, 100 mg, read-out: AUC0-24h, Mean): 65.9 µg·h/mL
AUC(0-t) ([3]; 100 mg, phase 1, Day 1, 100 mg, read-out: AUC0-24h, Median): 56 µg·h/mL
Cmax ([3]; 100 mg, phase 1, Day 1, 100 mg, read-out: Cmax, Mean): 3700 ng/mL
Cmax ([3]; 100 mg, phase 1, Day 1, 100 mg, read-out: Cmax, Median): 2910 ng/mL
Tmax ([3]; 100 mg, phase 1, Day 1, 100 mg): 5 h
AUC(0-t) ([3]; 100 mg, phase 1, Day 15, 100 mg, read-out: AUC0-24h, Mean): 120 µg·h/mL
AUC(0-t) ([3]; 100 mg, phase 1, Day 15, 100 mg, read-out: AUC0-24h, Median): 121 µg·h/mL
Cmax ([3]; 100 mg, phase 1, Day 15, 100 mg, read-out: Cmax, Mean): 6360 ng/mL
Cmax ([3]; 100 mg, phase 1, Day 15, 100 mg, read-out: Cmax, Median): 6180 ng/mL
Tmax ([3]; 100 mg, phase 1, Day 15, 100 mg): 3 h
AUC(0-t) ([3]; 150 mg, phase 1, Day 1, 150 mg, read-out: AUC0-24h, Mean): 64.7 µg·h/mL
AUC(0-t) ([3]; 150 mg, phase 1, Day 1, 150 mg, read-out: AUC0-24h, Median): 69.2 µg·h/mL
Cmax ([3]; 150 mg, phase 1, Day 1, 150 mg, read-out: Cmax, Mean): 3720 ng/mL
Cmax ([3]; 150 mg, phase 1, Day 1, 150 mg, read-out: Cmax, Median): 3790 ng/mL
AUC(0-t) ([3]; 150 mg, phase 1, Day 15, 150 mg, read-out: AUC0-24h, Mean): 140 µg·h/mL
AUC(0-t) ([3]; 150 mg, phase 1, Day 15, 150 mg, read-out: AUC0-24h, Median): 114 µg·h/mL
Cmax ([3]; 150 mg, phase 1, Day 15, 150 mg, read-out: Cmax, Mean): 6700 ng/mL
Cmax ([3]; 150 mg, phase 1, Day 15, 150 mg, read-out: Cmax, Median): 5410 ng/mL
Tmax ([3]; 150 mg, phase 1, Day 15, 150 mg): 2.5 h
AUC(0-t) ([3]; 300 mg, phase 1, Day 1, 300 mg, read-out: AUC0-24h, Mean): 87.1 µg·h/mL
AUC(0-t) ([3]; 300 mg, phase 1, Day 1, 300 mg, read-out: AUC0-24h, Median): 98.2 µg·h/mL
Cmax ([3]; 300 mg, phase 1, Day 1, 300 mg, read-out: Cmax, Mean): 5240 ng/mL
Cmax ([3]; 300 mg, phase 1, Day 1, 300 mg, read-out: Cmax, Median): 5830 ng/mL
AUC(0-t) ([3]; 300 mg, phase 1, Day 15, 300 mg, read-out: AUC0-24h, Mean): 133 µg·h/mL
AUC(0-t) ([3]; 300 mg, phase 1, Day 15, 300 mg, read-out: AUC0-24h, Median): 134 µg·h/mL
Cmax ([3]; 300 mg, phase 1, Day 15, 300 mg, read-out: Cmax, Mean): 6410 ng/mL
Cmax ([3]; 300 mg, phase 1, Day 15, 300 mg, read-out: Cmax, Median): 6860 ng/mL
AUC(0-t) ([3]; 400 mg, phase 1, Day 1, 400 mg, read-out: AUC0-24h, Mean): 127 µg·h/mL
AUC(0-t) ([3]; 400 mg, phase 1, Day 1, 400 mg, read-out: AUC0-24h, Median): 118 µg·h/mL
Cmax ([3]; 400 mg, phase 1, Day 1, 400 mg, read-out: Cmax, Mean): 6280 ng/mL
Cmax ([3]; 400 mg, phase 1, Day 1, 400 mg, read-out: Cmax, Median): 5640 ng/mL
Tmax ([3]; 400 mg, phase 1, Day 1, 400 mg): 8 h
AUC(0-t) ([3]; 400 mg, phase 1, Day 15, 400 mg, read-out: AUC0-24h, Mean): 203 µg·h/mL
AUC(0-t) ([3]; 400 mg, phase 1, Day 15, 400 mg, read-out: AUC0-24h, Median): 240 µg·h/mL
Cmax ([3]; 400 mg, phase 1, Day 15, 400 mg, read-out: Cmax, Mean): 9770 ng/mL
Cmax ([3]; 400 mg, phase 1, Day 15, 400 mg, read-out: Cmax, Median): 11700 ng/mL
AUC(0-t) ([3]; 500 mg, phase 1, Day 1, 500 mg, read-out: AUC0-24h, Mean): 141 µg·h/mL
AUC(0-t) ([3]; 500 mg, phase 1, Day 1, 500 mg, read-out: AUC0-24h, Median): 118 µg·h/mL
Cmax ([3]; 500 mg, phase 1, Day 1, 500 mg, read-out: Cmax, Mean): 7050 ng/mL
Cmax ([3]; 500 mg, phase 1, Day 1, 500 mg, read-out: Cmax, Median): 6310 ng/mL
AUC(0-t) ([3]; 500 mg, phase 1, Day 15, 500 mg, read-out: AUC0-24h, Mean): 178 µg·h/mL
